This data set can be described thus: Metabolic stability in minipig intestinal fluid, quantification of licofelone by HPLC/UV. The data set is classed as in vitro ADME, Gottingen SPF minipig. The settings on record: diluted minipig intestinal fluid; result in words. As to the method: Metabolic Stability of NSAID in Minipig Intestinal Fluid—Quantification of Licofelone
Intestinal tissue/fluid and enterocyte samples were taken from a 10 month old, female Gottingen SPF minipig. The body weight was 21 kg. The minipig was fasted for approximately 28 hours before sampling of intestinal fluid/tissues and enterocytes. On the day of sampling, the minipig was weighed and anaesthetised. The animal was killed by exsanguination before the sampling of intestinal fluid. An intestinal segment was ligated at both ends before removal. The isolated tissue was placed in isotonic saline and opened by a longitudinal cut for sampling of intestinal fluid.
The intestinal tissue from each segment was transferred into a Centrifuge Tube, immersed in 10 ml 50mM phosphate buffer, pH 6.8 and frozen at −70° C.
b) Incubation Experiments with Minipig Intestinal Fluid (without FaSSIF) […]
A set of six reference solutions (solvent: 1 vol IF and 4 vol 2% bovine serum albumin in FaSSIF pH 6.5) with licofelone concentrations between 38.0 and 0.19 μg/ml and the solvent without licofelone were analysed in duplicate. The obtained concentration/peak area data pairs were subjected to linear regression analysis and the resulting calibration curve (r^2=0.9999) was used for quantification of licofelone in incubation experiments.

With `CC1(C)Cc2c(-c3ccccc3)c(-c3ccc(Cl)cc3)c(CC(=O)OCCOC(=O)Cc3c(-c4ccc(Cl)cc4)c(-c4ccccc4)c4n3CC(C)(C)C4)n2C1` [Reference Example 5b, 2-[2-[2-(4-chlorophenyl)-6,6-di-methyl-1-phenyl-5,7-dihydropyrrolizin-3-yl]acetyl]oxyethyl-2-[2-(4-chloro-phenyl)-6,6-dimethyl-1-phenyl-5,7-dihydropyrrolizin-3-yl]acetate], the “release of licofelone compared with Examples bearing a hydroxy group or an MMF residue as R” value is recorded as “significantly lower”.

On to `CC1(C)Cc2c(-c3ccccc3)c(-c3ccc(Cl)cc3)c(CC(=O)OCCOCCOCCOCCOC(=O)Cc3c(-c4ccc(Cl)cc4)c(-c4ccccc4)c4n3CC(C)(C)C4)n2C1` [Reference Example 4b, [2-(4-Chloro-phenyl)-6,6-dimethyl-1-phenyl-6,7-dihydro-5H-pyrrolizin-3-yl]acetic acid 2-{2-[2-(2-{2-[2-(4-chloro-phenyl)-6,6-dimethyl-1-phenyl-6,7-dihydro-5H-pyrrolizin-3-yl]-acetoxy}-ethoxy)-ethoxy]-ethoxy}-ethyl ester], for which the “release of licofelone compared with Examples bearing a hydroxy group or an MMF residue as R” value is on record as “significantly lower”.

The values above are taken from US20200239473A1, “NEW DERIVATIVES OF LICOFELONE” (priority 2015, published 2020).
